tested on: 229E human corona virus (hCoV); test: 229E live virus assay (CPE, ATPlite) in MRC-5 cells; format: cell-based, hCoV-229E; details: Human coronavirus 229E, MRC5, 144 h, read-out: 229E EC50

First: CC(C)C[C@H](C(=O)Nc1cc(F)cc(F)c1)C(=O)N(C)[C@@H](CC(C)C)C(=O)N1C[C@]2(C[C@H]1C#N)C(=O)Nc1ccccc12 (single isomer, unassigned) [Compound 4]
Second: CC(C)C[C@@H](C(=O)Nc1cc(F)cc(F)c1)C(=O)N(C)[C@@H](CC(C)C)C(=O)N1C[C@]2(C[C@H]1C#N)C(=O)Nc1ccccc12 [Compound 3]
The EC50 of the first is lower: < 100 nM for the first, 100 to 1000 nM for the second. The first is the more potent here.

same assay, conditions: Human coronavirus 229E, MRC5, 144 h; MRC-5 cells, MOI 0.05, 6 days at 34° C., ATPlite readout, duplicate; read-out: 229E EC50

`CC(C)C[C@@H](C(=O)N1C[C@]2(C[C@H]1C#N)C(=O)Nc1ccccc12)N(C)C(=O)CC(=O)Nc1ccc(F)cc1F` [Compound 1] and `CC(C)C[C@@H](C(=O)N1C[C@]2(C[C@H]1C#N)C(=O)Nc1ccccc12)N(C)C(=O)CC(=O)c1cc2c(F)cc(F)cc2[nH]1` [Compound 6] cannot be ordered by EC50: < 100 nM for the first, < 100 nM for the second.

Compared with `CC(C)CC(C(=O)Nc1cc(F)cc(F)c1)C(=O)N(C)[C@@H](CC(C)C)C(=O)N1C[C@]2(C[C@H]1C(N)=O)C(=O)Nc1ccccc12` (stereo partly shown) [Compound 2], `CC(C)C[C@@H](C(=O)N1C[C@]2(C[C@H]1C#N)C(=O)Nc1ccccc12)N(C)C(=O)CC(=O)OC(C)(C)C` [Compound 5] is lower in EC50: 100 to 1000 nM for the first, < 100 nM for the second.

In the case of `CC(C)(C)C[C@H](NC(=O)C(C)(C)C(=O)Nc1cc(F)ccc1F)C(=O)N1C[C@]2(C[C@H]1C#N)C(=O)Nc1ccccc12` [Compound 11], the EC50 is reported as 100 to 1000 nM.

target: SARS-CoV-2 3CL-protease (Severe acute respiratory syndrome coronavirus 2 (2019-nCoV) (SARS-CoV-2), UniProt P0DTD1); test: SARS-CoV-2 3C-like (3CL) protease fluorescence assay (FRET); format: biochemical; details: recombinant SARS-CoV-2 3CL-protease 10 nM, 30 min preincubation, peptide substrate, duplicate

`CC(C)C[C@H](C(=O)Nc1cc(F)cc(F)c1)C(=O)N(C)[C@@H](CC(C)C)C(=O)N1C[C@]2(C[C@H]1C#N)C(=O)Nc1ccccc12` (single isomer, unassigned) [Compound 4] and `CC(C)CC(C(=O)Nc1cc(F)cc(F)c1)C(=O)N(C)[C@@H](CC(C)C)C(=O)N1C[C@]2(C[C@H]1C(N)=O)C(=O)Nc1ccccc12` (stereo partly shown) [Compound 2] cannot be ordered by IC50: < 100 nM for the first, < 100 nM for the second.

`CC(C)C[C@@H](C(=O)N1C[C@]2(C[C@H]1C#N)C(=O)Nc1ccccc12)N(C)C(=O)CC(=O)Nc1ccc(F)cc1F` [Compound 1] and `CC(C)C[C@@H](C(=O)N1C[C@]2(C[C@H]1C#N)C(=O)Nc1ccccc12)N(C)C(=O)CC(=O)Nc1ccccc1F` [Compound 24] cannot be ordered by IC50: < 100 nM for the first, < 100 nM for the second.

`CC(C)C[C@@H](C(=O)N1C[C@]2(C[C@H]1C#N)C(=O)Nc1ccccc12)N(C)C(=O)CC(=O)OC(C)(C)C` [Compound 5] and `CC(C)C[C@@H](C(=O)N1C[C@]2(C[C@H]1C#N)C(=O)Nc1ccccc12)N(C)C(=O)CC(=O)NCC(C)(C)O` [Compound 15] cannot be ordered by IC50: < 100 nM for the first, < 100 nM for the second.

`CC(C)C[C@@H](C(=O)N1C[C@]2(C[C@H]1C#N)C(=O)Nc1ccccc12)N(C)C(=O)CC(=O)c1cc2c(F)cc(F)cc2[nH]1` [Compound 6] and `CC(C)C[C@@H](C(=O)N1C[C@]2(C[C@H]1C#N)C(=O)Nc1ccccc12)N(C)C(=O)CC(=O)Nc1cccc(F)c1` [Compound 25] cannot be ordered by IC50: < 100 nM for the first, < 100 nM for the second.

First: CC(C)C[C@@H](C(=O)N1C[C@]2(C[C@H]1C#N)C(=O)Nc1ccccc12)N(C)C(=O)C(C)(C)C(=O)O [Compound 7]
Second: CC(C)C[C@@H](C(=O)N1C[C@]2(C[C@H]1C#N)C(=O)Nc1ccccc12)N(C)C(=O)C(C)(C)C(=O)Nc1cc(F)ccc1F [Compound 8]
The IC50 of the first is higher: > 1000 nM for the first, 100 to 1000 nM for the second.

First: Cc1cccc(C)c1NC(=O)C(C)(C)C(=O)N(C)[C@@H](CC(C)C)C(=O)N1C[C@]2(C[C@H]1C#N)C(=O)Nc1ccccc12 [Compound 9]
Second: Cc1cccc(C)c1NC(=O)CC(=O)N(C)[C@@H](CC(C)C)C(=O)N1C[C@]2(C[C@H]1C#N)C(=O)Nc1ccccc12 [Compound 10]
The IC50 of the first is higher: 100 to 1000 nM for the first, < 100 nM for the second. The second is the more potent here.

`CC(C)(C)C[C@H](NC(=O)C(C)(C)C(=O)Nc1cc(F)ccc1F)C(=O)N1C[C@]2(C[C@H]1C#N)C(=O)Nc1ccccc12` [Compound 11] and `Cc1cccc(C)c1NC(=O)C(C)(C)C(=O)N[C@@H](CC(C)(C)C)C(=O)N1C[C@]2(C[C@H]1C#N)C(=O)Nc1ccccc12` [Compound 12] cannot be ordered by IC50: < 100 nM for the first, < 100 nM for the second.

`Cc1cccc(C)c1NS(=O)(=O)CC(=O)N(C)[C@@H](CC(C)C)C(=O)N1C[C@]2(C[C@H]1C#N)C(=O)Nc1ccccc12` [Compound 13] and `Cc1cccc(C)c1NC(=O)CS(=O)(=O)N(C)[C@@H](CC(C)(C)C)C(=O)N1C[C@]2(C[C@H]1C#N)C(=O)Nc1ccccc12` [Compound 14] cannot be ordered by IC50: < 100 nM for the first, < 100 nM for the second.

`CC(C)C[C@@H](C(=O)N1C[C@]2(C[C@H]1C#N)C(=O)Nc1ccccc12)N(C)C(=O)CC(=O)Nc1ccccc1` [Compound 16] and `CC(C)C[C@@H](C(=O)N1C[C@]2(C[C@H]1C#N)C(=O)Nc1ccccc12)N(C)C(=O)CC(=O)NCc1ccccc1` [Compound 17] cannot be ordered by IC50: < 100 nM for the first, < 100 nM for the second.

First: CC(C)C[C@@H](C(=O)N1C[C@]2(C[C@H]1C#N)C(=O)Nc1ccccc12)N(C)C(=O)CC(=O)N[C@H](C)c1ccccc1 [Compound 18]
Second: CC(C)C[C@@H](C(=O)N1C[C@]2(C[C@H]1C#N)C(=O)Nc1ccccc12)N(C)C(=O)CC(=O)N[C@@H](C)c1ccccc1 [Compound 20]
The IC50 of the first is lower: < 100 nM for the first, 100 to 1000 nM for the second.

`CC(C)C[C@@H](C(=O)N1C[C@]2(C[C@H]1C#N)C(=O)Nc1ccccc12)N(C)C(=O)CC(=O)Nc1cccc2ccccc12` [Compound 19] and `CC(C)C[C@@H](C(=O)N1C[C@]2(C[C@H]1C#N)C(=O)Nc1ccccc12)N(C)C(=O)CC(=O)Nc1ccc(F)cc1` [Compound 26] cannot be ordered by IC50: < 100 nM for the first, < 100 nM for the second.

`CC(C)C[C@@H](C(=O)N1C[C@]2(C[C@H]1C#N)C(=O)Nc1ccccc12)N(C)C(=O)CC(=O)Nc1ccccn1` [Compound 21] and `CC(C)C[C@@H](C(=O)N1C[C@]2(C[C@H]1C#N)C(=O)Nc1ccccc12)N(C)C(=O)CC(=O)Nc1cccnc1` [Compound 22] cannot be ordered by IC50: < 100 nM for the first, < 100 nM for the second.

`CC(C)C[C@@H](C(=O)N1C[C@]2(C[C@H]1C#N)C(=O)Nc1ccccc12)N(C)C(=O)CC(=O)Nc1ccncc1` [Compound 23] and `CC(C)C[C@@H](C(=O)N1C[C@]2(C[C@H]1C#N)C(=O)Nc1ccccc12)N(C)C(=O)CC(=O)Nc1cn[nH]c1` [Compound 27] cannot be ordered by IC50: < 100 nM for the first, < 100 nM for the second.

`Cc1cccc(C)c1NC(=O)C1(C(=O)N[C@@H](CC(C)(C)C)C(=O)N2C[C@]3(C[C@H]2C#N)C(=O)Nc2ccccc23)CC1` [Compound 29] and `Cc1cccc(C)c1NC(=O)C1(C(=O)N[C@@H](CC(C)(C)C)C(=O)N2C[C@]3(C[C@H]2C#N)C(=O)Nc2ccccc23)CCOCC1` [Compound 40] cannot be ordered by IC50: < 100 nM for the first, < 100 nM for the second.

`Cc1cccc(C)c1NC(=O)C1(C(=O)N[C@@H](CC(C)C)C(=O)N2C[C@]3(C[C@H]2C#N)C(=O)Nc2ccccc23)CCCC1` [Compound 30] and `Cc1cccc(C)c1NC(=O)C1(C(=O)N[C@@H](CC(C)C)C(=O)N2C[C@]3(C[C@H]2C#N)C(=O)Nc2ccccc23)CCOCC1` [Compound 38] cannot be ordered by IC50: < 100 nM for the first, < 100 nM for the second.

`CC(C)C[C@@H](C(=O)N1C[C@]2(C[C@H]1C#N)C(=O)Nc1ccccc12)N(C)C(=O)CC(=O)NC[C@H](C)O` [Compound 31] and `CC(C)C[C@@H](C(=O)N1C[C@]2(C[C@H]1C#N)C(=O)Nc1ccccc12)N(C)C(=O)CC(=O)NC[C@@H](C)O` [Compound 32] cannot be ordered by IC50: < 100 nM for the first, < 100 nM for the second.

`CC(C)C[C@@H](C(=O)N1C[C@]2(C[C@H]1C#N)C(=O)Nc1ccccc12)N(C)C(=O)CC(=O)N[C@H](C)CO` [Compound 33] and `CC(C)C[C@@H](C(=O)N1C[C@]2(C[C@H]1C#N)C(=O)Nc1ccccc12)N(C)C(=O)CC(=O)N[C@@H](C)CO` [Compound 34] cannot be ordered by IC50: < 100 nM for the first, < 100 nM for the second.

`CC(C)C[C@@H](C(=O)N1C[C@]2(C[C@H]1C#N)C(=O)Nc1ccccc12)N(C)C(=O)CC(=O)NCC(F)F` [Compound 35] and `CC(C)C[C@@H](C(=O)N1C[C@]2(C[C@H]1C#N)C(=O)Nc1ccccc12)N(C)C(=O)CC(=O)N[C@@H](C)C(F)(F)F` [Compound 49] cannot be ordered by IC50: < 100 nM for the first, < 100 nM for the second.

Compared with `CC(C)C[C@@H](C(=O)N1C[C@]2(C[C@H]1C#N)C(=O)Nc1ccccc12)N(C)C(=O)CC(=O)N[C@@H]1CCN(C(=O)OC(C)(C)C)C1` [Compound 36], `CC(C)C[C@@H](C(=O)N1C[C@]2(C[C@H]1C#N)C(=O)Nc1ccccc12)N(C)C(=O)CC(=O)N[C@H]1CCN(C(=O)OC(C)(C)C)C1` [Compound 37] is lower in IC50: 100 to 1000 nM for the first, < 100 nM for the second. The second is the more potent here.

`CC(C)C[C@H](NC(=O)C1(C(=O)NCC(C)(C)O)CCC1)C(=O)N1C[C@]2(C[C@H]1C#N)C(=O)Nc1ccccc12` [Compound 39] and `CC(C)C[C@@H](C(=O)N1C[C@]2(C[C@H]1C#N)C(=O)Nc1ccccc12)N(C)C(=O)CC(=O)N[C@H](C)C(F)(F)F` [Compound 50] cannot be ordered by IC50: < 100 nM for the first, < 100 nM for the second.

`CC(C)C[C@@H](C(=O)N1C[C@]2(C[C@H]1C#N)C(=O)Nc1ccccc12)N(C)C(=O)CC(=O)N[C@@H]1CCC[C@@H]1O` [Compound 41] and `CC(C)C[C@@H](C(=O)N1C[C@]2(C[C@H]1C#N)C(=O)Nc1ccccc12)N(C)C(=O)CC(=O)N[C@H]1CCC[C@@H]1O` [Compound 42] cannot be ordered by IC50: < 100 nM for the first, < 100 nM for the second.

`CC(C)C[C@@H](C(=O)N1C[C@]2(C[C@H]1C#N)C(=O)Nc1ccccc12)N(C)C(=O)CC(=O)N[C@@H]1CCC[C@H]1O` [Compound 43] and `CC(C)C[C@@H](C(=O)N1C[C@]2(C[C@H]1C#N)C(=O)Nc1ccccc12)N(C)C(=O)CC(=O)N[C@H]1CCC[C@H]1O` [Compound 44] cannot be ordered by IC50: < 100 nM for the first, < 100 nM for the second.

`CC(C)C[C@@H](C(=O)N1C[C@]2(C[C@H]1C#N)C(=O)Nc1ccccc12)N(C)C(=O)CC(=O)N[C@@H]1CC[C@H](O)C1` [Compound 45] and `CC(C)C[C@@H](C(=O)N1C[C@]2(C[C@H]1C#N)C(=O)Nc1ccccc12)N(C)C(=O)CC(=O)N[C@H]1CC[C@H](O)C1` [Compound 46] cannot be ordered by IC50: < 100 nM for the first, < 100 nM for the second.

`CC(C)C[C@@H](C(=O)N1C[C@]2(C[C@H]1C#N)C(=O)Nc1ccccc12)N(C)C(=O)CC(=O)N[C@@H]1CC[C@@H](O)C1` [Compound 47] and `CC(C)C[C@@H](C(=O)N1C[C@]2(C[C@H]1C#N)C(=O)Nc1ccccc12)N(C)C(=O)CC(=O)N[C@H]1CC[C@@H](O)C1` [Compound 48] cannot be ordered by IC50: < 100 nM for the first, < 100 nM for the second.
